Source: the NIST ThermoML archive (doi:10.1016/j.tca.2016.05.007)

Experiment: molar heat capacity at constant pressure
Conditions: 101.33 kPa, Small (less than 1 g) adiabatic calorimetry

COc1ccc(C2(c3ccc(OC)c(C)c3)OC(=O)c3ccccc32)cc1C [3,3-bis(4-methoxy-3-methylphenyl)-1(3H)-isobenzofuranone]
Conditions | molar heat capacity at constant pressure [J/K/mol]
5.802 K, Glass | 2.967
6.011 K, Crystal | 1.658
6.232 K, Glass | 3.526
6.486 K, Crystal | 2.176
6.689 K, Glass | 4.234
6.977 K, Crystal | 2.797
7.179 K, Glass | 5.003
7.498 K, Crystal | 3.461
7.715 K, Glass | 5.872
8.061 K, Crystal | 4.249
8.282 K, Glass | 6.885
8.65 K, Crystal | 5.21
8.874 K, Glass | 8.044
9.274 K, Crystal | 6.207
9.483 K, Glass | 9.187
9.939 K, Crystal | 7.418
10.1 K, Glass | 10.44
10.63 K, Crystal | 8.764
10.73 K, Glass | 11.74
11.34 K, Crystal | 10.21
11.35 K, Glass | 13.13
11.98 K, Glass | 14.45
12.03 K, Crystal | 11.58
12.62 K, Glass | 15.86
12.71 K, Crystal | 13.08
13.28 K, Glass | 17.41
13.41 K, Crystal | 14.58
13.96 K, Glass | 18.93
14.13 K, Crystal | 16.23
14.66 K, Glass | 20.58
14.89 K, Crystal | 18.08
15.39 K, Glass | 22.28
15.68 K, Crystal | 19.91
16.15 K, Glass | 24.12
16.49 K, Crystal | 21.8
16.94 K, Glass | 25.94
17.04 K, Crystal | 22.93
17.66 K, Glass | 27.62
17.91 K, Crystal | 25.25
18.49 K, Glass | 29.63
18.78 K, Crystal | 27.27
19.34 K, Glass | 31.77
19.67 K, Crystal | 29.41
20.21 K, Glass | 33.84
20.58 K, Crystal | 31.37
21.11 K, Glass | 35.96
21.5 K, Crystal | 33.68
22.03 K, Glass | 38.09
22.45 K, Crystal | 35.73
23 K, Glass | 40.41
23.44 K, Crystal | 38.11
24.02 K, Glass | 42.79
24.48 K, Crystal | 40.68
25.08 K, Glass | 45.25
25.54 K, Crystal | 43.24
26.16 K, Glass | 47.65
26.63 K, Crystal | 45.57
27.26 K, Glass | 50.09
27.74 K, Crystal | 48.13
28.38 K, Glass | 52.99
28.86 K, Crystal | 51.61
29.5 K, Glass | 56.69
29.99 K, Crystal | 54.09
30.63 K, Glass | 57.45
31.12 K, Crystal | 55.63
31.76 K, Glass | 60.08
32.25 K, Crystal | 58.38
32.9 K, Glass | 63.09
33.39 K, Crystal | 61.18
34.06 K, Glass | 65.62
34.56 K, Crystal | 63.78
35.25 K, Glass | 68.43
35.74 K, Crystal | 66.5
36.45 K, Glass | 70.84
36.95 K, Crystal | 69.15
37.67 K, Glass | 73.54
38.17 K, Crystal | 71.7
38.9 K, Glass | 75.9
39.4 K, Crystal | 74.01
40.15 K, Glass | 78.39
40.66 K, Crystal | 76.39
41.41 K, Glass | 80.76
41.94 K, Crystal | 79
42.68 K, Glass | 83.53
43.23 K, Crystal | 81.44
43.93 K, Glass | 85.97
44.51 K, Crystal | 83.92
45.19 K, Glass | 88.07
45.78 K, Crystal | 86.54
46.45 K, Glass | 90.22
47.06 K, Crystal | 89.06
47.71 K, Glass | 93.04
48.33 K, Crystal | 91.12
48.97 K, Glass | 95.25
49.6 K, Crystal | 94.6
50.23 K, Glass | 98.01
50.87 K, Crystal | 97.15
51.48 K, Glass | 100.37
52.14 K, Crystal | 99.73
52.74 K, Glass | 103.27
53.41 K, Crystal | 102.49
54 K, Glass | 105.75
54.68 K, Crystal | 105
55.27 K, Glass | 108.28
55.95 K, Crystal | 107.6
56.53 K, Glass | 110.76
57.22 K, Crystal | 109.68
57.79 K, Glass | 113.22
58.5 K, Crystal | 112.22
59.06 K, Glass | 115.64
59.77 K, Crystal | 114.59
60.33 K, Glass | 117.82
61.05 K, Crystal | 116.87
61.6 K, Glass | 120.17
62.33 K, Crystal | 119.39
62.87 K, Glass | 122.44
63.61 K, Crystal | 121.85
64.15 K, Glass | 124.78
64.89 K, Crystal | 123.86
65.43 K, Glass | 126.76
66.18 K, Crystal | 125.9
66.72 K, Glass | 129.06
67.47 K, Crystal | 128.08
68.01 K, Glass | 131.4
68.77 K, Crystal | 130.54
69.3 K, Glass | 133.63
70.07 K, Crystal | 132.99
70.6 K, Glass | 136.05
71.38 K, Crystal | 135.25
71.91 K, Glass | 138.21
72.69 K, Crystal | 137.49
73.22 K, Glass | 140.28
74.01 K, Crystal | 139.48
74.59 K, Glass | 142.77
75.33 K, Crystal | 141.75
76.03 K, Glass | 145.08
76.66 K, Crystal | 144.1
77.47 K, Glass | 147.57
77.99 K, Crystal | 146.27
78.91 K, Glass | 149.7
79.33 K, Crystal | 148.82
80.36 K, Glass | 152.24
80.67 K, Crystal | 150.88
81.81 K, Glass | 154.61
82.09 K, Crystal | 152.82
83.27 K, Glass | 156.85
83.57 K, Crystal | 155.34
84.73 K, Glass | 159.35
85.06 K, Crystal | 157.59
86.19 K, Glass | 161.67
86.55 K, Crystal | 160.21
87.66 K, Glass | 164.03
88.04 K, Crystal | 162.51
89.14 K, Glass | 166.13
89.54 K, Crystal | 164.72
90.62 K, Glass | 168.74
91.05 K, Crystal | 167.41
92.11 K, Glass | 171.18
92.56 K, Crystal | 169.71
93.61 K, Glass | 173.56
94.08 K, Crystal | 172.05
95.11 K, Glass | 176.28
95.6 K, Crystal | 174.26
96.62 K, Glass | 178.27
97.14 K, Crystal | 176.64
98.14 K, Glass | 180.03
98.67 K, Crystal | 178.97
99.67 K, Glass | 182.72
100.22 K, Crystal | 181.39
101.2 K, Glass | 185
101.77 K, Crystal | 183.97
102.74 K, Glass | 186.83
103.33 K, Crystal | 186.52
104.29 K, Glass | 189.85
104.9 K, Crystal | 188.69
105.85 K, Glass | 192.15
106.48 K, Crystal | 190.79
107.42 K, Glass | 194.15
108.07 K, Crystal | 193.1
109 K, Glass | 196.63
109.72 K, Crystal | 195.77
110.58 K, Glass | 199.21
111.45 K, Crystal | 198.35
112.18 K, Glass | 201.62
113.19 K, Crystal | 200.89
113.78 K, Glass | 204.03
114.95 K, Crystal | 203.39
115.4 K, Glass | 206.27
116.73 K, Crystal | 205.7
117.1 K, Glass | 208.63
118.52 K, Crystal | 209.32
118.89 K, Glass | 211.16
120.34 K, Crystal | 211.71
120.69 K, Glass | 213.89
